Measurements published in PubChem BioAssay (NCI).
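All cell lines were grown in 96-well plates and treated with compound for 48 hours. GI50 = concentration required for 50% inhibition of growth. TGI: concentration producing complete growth inhibition.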

What was measured:
Experiment in all cases: DTP human tumour cell line panel, 48 h
T-47D breast = test system: T-47D breast
ACHN renal = test system: ACHN renal
HS 578T breast = test system: HS 578T breast
NCI-H522 lung = test system: NCI-H522 lung
OVCAR-4 ovarian = test system: OVCAR-4 ovarian
NCI/ADR-RES ovarian = test system: NCI/ADR-RES ovarian
NCI-H460 lung = test system: NCI-H460 lung
OVCAR-3 ovarian = test system: OVCAR-3 ovarian
RXF 393 renal = test system: RXF 393 renal
HOP-62 NSCLC = test system: HOP-62 NSCLC
SNB-75 CNS = test system: SNB-75 CNS
MALME-3M melanoma = test system: MALME-3M melanoma
MOLT-4 leukemia = test system: MOLT-4 leukemia
SK-MEL-2 melanoma = test system: SK-MEL-2 melanoma
K-562 leukemia = test system: K-562 leukemia
SNB-19 CNS = test system: SNB-19 CNS
HT29 colon = test system: HT29 colon
SF-295 CNS = test system: SF-295 CNS
786-0 renal = test system: 786-0 renal
UO-31 renal = test system: UO-31 renal
SK-OV-3 ovarian = test system: SK-OV-3 ovarian
MDA-MB-435 = test system: MDA-MB-435
CCRF-CEM leukemia = test system: CCRF-CEM leukemia
CAKI-1 renal = test system: CAKI-1 renal
SR leukemia = test system: SR leukemia
OVCAR-8 ovarian = test system: OVCAR-8 ovarian
DU-145 prostate = test system: DU-145 prostate
A498 renal = test system: A498 renal
SF-539 CNS = test system: SF-539 CNS

Fc1ccc(-c2nn3ccccc3c2-c2ccncc2)cc1
GI50 (T-47D breast): > 21 µM
TGI (T-47D breast): > 25 µM
GI50 (ACHN renal): 12.1 µM
TGI (ACHN renal): > 25 µM
GI50 (HS 578T breast): > 25 µM
TGI (HS 578T breast): > 25 µM
GI50 (NCI-H522 lung): > 19.8 µM
TGI (NCI-H522 lung): > 25 µM
GI50 (OVCAR-4 ovarian): > 25 µM
TGI (OVCAR-4 ovarian): > 25 µM
GI50 (NCI/ADR-RES ovarian): > 25 µM
TGI (NCI/ADR-RES ovarian): > 25 µM
GI50 (NCI-H460 lung): > 25 µM
TGI (NCI-H460 lung): > 25 µM
GI50 (OVCAR-3 ovarian): > 25 µM
TGI (OVCAR-3 ovarian): > 25 µM
GI50 (RXF 393 renal): > 25 µM
TGI (RXF 393 renal): > 25 µM
GI50 (HOP-62 NSCLC): > 25 µM
TGI (HOP-62 NSCLC): > 25 µM
GI50 (SNB-75 CNS): > 19.7 µM
TGI (SNB-75 CNS): > 25 µM
GI50 (MALME-3M melanoma): > 25 µM
TGI (MALME-3M melanoma): > 25 µM
GI50 (MOLT-4 leukemia): > 25 µM
TGI (MOLT-4 leukemia): > 25 µM
GI50 (SK-MEL-2 melanoma): > 25 µM
TGI (SK-MEL-2 melanoma): > 25 µM
GI50 (K-562 leukemia): > 25 µM
TGI (K-562 leukemia): > 25 µM
GI50 (SNB-19 CNS): > 25 µM
TGI (SNB-19 CNS): > 25 µM
GI50 (HT29 colon): 14 µM
TGI (HT29 colon): > 25 µM
GI50 (SF-295 CNS): > 25 µM
TGI (SF-295 CNS): > 25 µM
GI50 (786-0 renal): > 25 µM
TGI (786-0 renal): > 25 µM
GI50 (UO-31 renal): 8.26 µM
TGI (UO-31 renal): > 25 µM
GI50 (SK-OV-3 ovarian): > 25 µM
TGI (SK-OV-3 ovarian): > 25 µM
GI50 (MDA-MB-435): > 25 µM
TGI (MDA-MB-435): > 25 µM
GI50 (CCRF-CEM leukemia): > 25 µM
TGI (CCRF-CEM leukemia): > 25 µM
GI50 (CAKI-1 renal): 11.8 µM
TGI (CAKI-1 renal): > 25 µM
GI50 (SR leukemia): > 25 µM
TGI (SR leukemia): > 25 µM
GI50 (OVCAR-8 ovarian): > 25 µM
TGI (OVCAR-8 ovarian): > 25 µM
GI50 (DU-145 prostate): > 25 µM
TGI (DU-145 prostate): > 25 µM
GI50 (A498 renal): > 18.3 µM
TGI (A498 renal): > 25 µM
GI50 (SF-539 CNS): > 25 µM
TGI (SF-539 CNS): > 25 µM
